The source of these data is ChEMBL document CHEMBL4619767, “Precursor-Directed Biosynthesis and Fluorescence Labeling of Clickable Microcystins” (J Nat Prod, 2020).

Numbered stars: 1 amine (or outer) side, 2 acyl side, 3 side chain; on linkers, the order of the positions; unused ones are H or OH. Bridge positions count the residues as written; N and C are the ends. Square brackets hold non-standard residues; d marks the D form. Peptide text beside a SMILES is read from it. * marks the point of attachment. Adda = CO[C@@H](Cc1ccccc1)[C@@H](C)/C=C(C)/C=C/[C@H](N[*:1])[C@H](C)C(=O)[*:2]; dAsp(3S-Me) = C[C@H](C(=O)[*:3])[C@@H](N[*:1])C(=O)[*:2]; d(γGlu) = O=C(O)[C@@H](CCC(=O)[*:2])N[*:1]; NMeDha = C=C(NC)C(=O)O; Propargyl = C#CC*

In data set [1] the test system is HEK293. Kind of data set: Cytotoxicity against OATP1B3 (-/-) HEK293 cells incubated for 48 hrs by sulforhodamine B assay. Format: ADME, cell-based, Homo sapiens. For orientation: In SRB staining, fixed cells bind dye roughly in proportion to their protein.
Data set [2] concerns HEK293. Kind of data set: Cytotoxicity against OATP1B1 (-/-) HEK293 cells incubated for 48 hrs by sulforhodamine B assay. Format: ADME, cell-based, Homo sapiens.
A short description of data set [3]: Drug uptake in OATP1B3 (-/-) HEK293 cells at 100 nM measured up to 8 mins by fluorescence time-lapse microscopy. The note with it: human, hek293, 8 min, 0.1 µM. Format: ADME, cell-based.
A short description of data set [4]: Drug uptake in OATP1B1 (-/-) HEK293 cells at 100 nM measured up to 8 mins by fluorescence time-lapse microscopy. Format: ADME, cell-based. The settings on record: human, hek293, 8 min, 0.1 µM.

By EC50 is commonly meant the concentration giving half of the maximal effect. A high value points to lower potency in that assay.

For `C=C1C(=O)N[C@H](C)C(=O)N[C@@H](Cc2ccc(OCc3cn(-c4cc5ccc(O)cc5oc4=O)nn3)cc2)C(=O)N[C@@H](C(=O)O)[C@H](C)C(=O)N[C@@H](CCCNC(=N)N)C(=O)N[C@@H](/C=C/C(C)=C/[C@H](C)[C@H](Cc2ccccc2)OC)[C@H](C)C(=O)N[C@@H](C(=O)O)CCC(=O)N1C`, the EC50 with HEK293 [1] and in the data set with HEK293 [2] was > 2000 nM each time. The Drug uptake entry in data set [3] and in data set [4] was “Not Active” each time.
Turning to `C#CCOc1ccc(C[C@@H]2NC(=O)[C@@H](C)NC(=O)C(=C)N(C)C(=O)CC[C@H](C(=O)O)NC(=O)[C@@H](C)[C@H](/C=C/C(C)=C/[C@H](C)[C@H](Cc3ccccc3)OC)NC(=O)[C@H](CCCNC(=N)N)NC(=O)[C@@H](C)[C@H](C(=O)O)NC2=O)cc1` (R[Adda][d(γGlu)][NMeDha][dA]Y(Propargyl)[dAsp(3S-Me)]-OH; lactam N-7), the EC50 with HEK293 [1] and in the data set with HEK293 [2] was > 2000 nM in each case.
On to `C=C1C(=O)N[C@H](C)C(=O)N[C@@H](Cc2ccc(O)cc2)C(=O)N[C@@H](C(=O)O)[C@H](C)C(=O)N[C@@H](CCCNC(=N)N)C(=O)N[C@@H](/C=C/C(C)=C/[C@H](C)[C@H](Cc2ccccc2)OC)[C@H](C)C(=O)N[C@@H](C(=O)O)CCC(=O)N1C` (R[Adda][d(γGlu)][NMeDha][dA]Y[dAsp(3S-Me)]-OH; lactam N-7), for which the EC50 with HEK293 [1] and in the data set with HEK293 [2] was > 2000 nM each time.
